Results: ChEMBL document CHEMBL1133235, “Kinetic characterisation of ene-diol-based inhibitors of alpha-amylase” (Bioorg Med Chem Lett, 2000)

Test system: alpha-amylase (Hordeum vulgare)
Assay: Percent inhibition of Alpha-amylase activity was determined at 5 mM
Settings: malt

- inhibition: 92%
SMILES: O=C(O)/C(O)=C(\O)C(=O)O
